The numbers were not newly measured in patent publication US20230146870A1, “METHOD TO QUANTIFY AFFINITY AND SELECTIVITY OF SMALL MOLECULES FOR PROTEINS IN LIVING CELLS” (Ohio State Innovation Foundation, priority 2021, published 2023), which cites them from elsewhere.

This series concerns the target PKCζ (Homo sapiens, UniProt Q05513). The following applies: radiolabeled PDBu at 4° C.; cited from earlier work.

PKCζ, sequence (Q05513 whole entry): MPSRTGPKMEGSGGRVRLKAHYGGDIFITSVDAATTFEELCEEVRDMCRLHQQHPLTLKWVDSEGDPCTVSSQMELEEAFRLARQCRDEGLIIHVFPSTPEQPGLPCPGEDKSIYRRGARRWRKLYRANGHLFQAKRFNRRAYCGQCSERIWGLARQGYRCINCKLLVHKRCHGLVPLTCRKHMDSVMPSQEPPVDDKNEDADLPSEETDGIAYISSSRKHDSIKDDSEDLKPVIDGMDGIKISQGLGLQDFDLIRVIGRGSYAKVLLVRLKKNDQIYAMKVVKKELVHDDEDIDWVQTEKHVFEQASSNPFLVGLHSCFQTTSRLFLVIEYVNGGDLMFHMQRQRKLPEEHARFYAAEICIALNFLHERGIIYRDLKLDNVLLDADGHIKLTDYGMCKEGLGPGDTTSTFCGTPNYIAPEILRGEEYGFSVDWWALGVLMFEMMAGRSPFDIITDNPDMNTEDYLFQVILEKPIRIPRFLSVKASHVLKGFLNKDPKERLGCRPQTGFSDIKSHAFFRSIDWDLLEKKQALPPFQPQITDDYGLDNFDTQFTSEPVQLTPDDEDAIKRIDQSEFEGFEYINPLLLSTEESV

Consider `CCC/C=C/C=C/C(=O)O[C@H]1/C(=C/C(=O)OC)C[C@H]2C[C@H]([C@@H](C)O)OC(=O)C[C@H](O)C[C@@H]3C[C@H](OC(C)=O)C(C)(C)[C@](O)(C[C@@H]4C/C(=C/C(=O)OC)C[C@H](/C=C/C(C)(C)[C@]1(O)O2)O4)O3` [bryostatin 1], for which the “Biochemical Ki, PKCζ” value is “No binding”.
